Measurements published in US11834453B2, “Substituted pyrimido[5,4-d]pyrimidines as HER2 inhibitors” (Array BioPharma Inc., priority 2020, dated 2023).
Where two headings read alike, the source gives them in different places.

Key:
[1] = biological target: ErbB2 insYVMA (HER2-YVMA, SEQ ID NO: 2) (Homo sapiens, UniProt P04626, INS775YVMA/P1170A); assay: biochemical; details: ErbB2 insYVMA enzyme assay
[2] = biological target: ErbB2 WT (Homo sapiens (Human), UniProt P04626); assay: ErbB enzyme assay (CisBio HTRF KinEASE-TK), Assay 2; type: biochemical
Procedure, shortened: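 Readout is HTRF KinEASE-TK, using Sa-XL665 and cryptate antibody for 1 h at 22 °C, as percent of control between DMSO-only (100) and pre-quenched (0) reactions. The kinase reaction runs 30 min at 22 °C with 1 mM ATP and 250 nM biotinylated TK substrate, in HEPES pH 7.4 with MgCl2 and 2% DMSO.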

[3] = biological target: EGFR (Homo sapiens (Human), UniProt P00533); assay: ErbB enzyme assay (CisBio HTRF KinEASE-TK), Assay 3; type: biochemical
Procedure, shortened: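 IC50 was taken where a 4-parameter logistic fit crossed 50 percent of control (DMSO 100, pre-quenched 0), read by ratiometric HTRF. Reactions ran 30 min at 22 °C with 1 mM ATP and 250 nM TK-substrate biotin in pH 7.4 HEPES buffer with MgCl2, Triton X-100 and 2% DMSO.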

[4] = biological target: ErbB2 with Exon 20 YVMA insertion (HER2-YVMA) (Homo sapiens (Human), UniProt P04626, INS775YVMA); assay: Cellular phosphorylation assay, constitutive ErbB2 phosphorylation (Y1196) in engineered NIH 3T3 cells, Assay 4; type: cell-based
Procedure, shortened: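 In-cell Western in NIH 3T3 cells carrying ErbB2 exon 20 YVMA insertion, with no ligand stimulation. One hour compound exposure at 37 °C before fixation and anti-pY1196 plus GAPDH staining with dual-wavelength fluorescence. IC50 derived after GAPDH normalization.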

[5] = biological target: EGFR wild type (EGFR WT) (Homo sapiens (Human), UniProt P00533); assay: Cellular phosphorylation assay, EGF-stimulated EGFR phosphorylation in engineered NIH 3T3 cells, Phospho-EGFR DuoSet IC ELISA, Assay 5; type: cell-based
Procedure, shortened: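 Phospho-EGFR ELISA on lysates of engineered NIH 3T3 EGFR WT cells, IC50 derived from concentration curves. Cells plated at 20,000/well overnight, given compound dilutions 1 h at 37 °C, then rEGF 100 ng/ml for a further 10 min before lysis.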

[6] = biological target: BCRP (Homo sapiens (Human), UniProt Q9UNQ0); assay: BCRP transfected MDCKII canine Mdr1 knockout permeability/efflux, Assay 9; details: dog, Assay 9 Pe Ratio, efflux ratio Papp(B-A)/Papp(A-B), BCRP transfected MDCKII canine Mdr1 knockout
Description: BCRP transfected MDCKII cells (Assay 8) and BCRP transfected MDCKII canine Mdr1 knockout cells (Assay 9) were cultured and plated according to manufacturer's recommendations.
Both positive and negative controls were used to assess functionality of P-gp or BCRP efflux in the assays. Stock solutions for assay controls and the test article were prepared in DMSO for final test concentration of 1 μM. Final organic concentration in the assay was 1%. All dosing solutions contained 10 μM lucifer yellow to monitor MDCKII cell monolayer integrity.
For the apical to basolateral determination (A to B), 75 μL of the test article in transport buffer were added to the apical side of the individual transwells and 250 μL of basolateral media, without compound or lucifer yellow, were added to each well. For the basolateral to apical determination (B to A), 250 μL of test article in transport buffer were added to each well and 75 μL transport buffer, without compound or lucifer yellow, were added to each transwell. All tests were performed in triplicate, and each compound was tested for both apical to basolateral and basolateral to apical transport. The plates were incubated for 2 hours on a Lab-Line Instruments Titer Orbital Shaker (VWR, West Chester, PA) at 50 rpm and 37° C. with 5% CO2. All culture plates were removed from the incubator, 50 μL of media were removed from the apical and basolateral portion of each well, and added to 150 μL of 1 μM labetalol in 2:1 acetonitrile (ACN): H2O, v/v.
The plates were read using a Molecular Devices (Sunnyvale, CA) Gemini Fluorometer to evaluate the lucifer yellow concentrations at excitation/emission wavelengths of 425/535 nm. […] The plates were sealed, and the contents of each well analyzed by LC MS/MS. The compound concentrations were determined from the ratio of the peak areas of the compound to the internal standard (labetalol) in comparison to the dosing solution.
A MDS Sciex API 4000 (Applied Biosystems, Foster City, CA) mass spectrometer was used for detection of the analytes in the ion spray positive mode. Analyte responses were measured by multiple reaction monitoring (“MRM”) of transitions unique to each compound (the protonated precursor ion and selected product ions for each test article and m/z 329 to m/z 162 for labetalol, the internal standard.
The total run time, including re-equilibration, for a single injection was 1.2 minutes. […] The total run time, including re-equilibration, for a single injection was 0.61 minutes.
An efflux ratio is calculated from the mean apical to basolateral (A-B) Papp data and basolateral to apical (B-A) Papp data: Efflux ratio=Papp(B−A)/Papp(A−B)

Chain of ErbB2 insYVMA (HER2-YVMA, SEQ ID NO: 2) (P04626 with tags, fused parts or gaps INS775YVMA/P1170A limits assumed): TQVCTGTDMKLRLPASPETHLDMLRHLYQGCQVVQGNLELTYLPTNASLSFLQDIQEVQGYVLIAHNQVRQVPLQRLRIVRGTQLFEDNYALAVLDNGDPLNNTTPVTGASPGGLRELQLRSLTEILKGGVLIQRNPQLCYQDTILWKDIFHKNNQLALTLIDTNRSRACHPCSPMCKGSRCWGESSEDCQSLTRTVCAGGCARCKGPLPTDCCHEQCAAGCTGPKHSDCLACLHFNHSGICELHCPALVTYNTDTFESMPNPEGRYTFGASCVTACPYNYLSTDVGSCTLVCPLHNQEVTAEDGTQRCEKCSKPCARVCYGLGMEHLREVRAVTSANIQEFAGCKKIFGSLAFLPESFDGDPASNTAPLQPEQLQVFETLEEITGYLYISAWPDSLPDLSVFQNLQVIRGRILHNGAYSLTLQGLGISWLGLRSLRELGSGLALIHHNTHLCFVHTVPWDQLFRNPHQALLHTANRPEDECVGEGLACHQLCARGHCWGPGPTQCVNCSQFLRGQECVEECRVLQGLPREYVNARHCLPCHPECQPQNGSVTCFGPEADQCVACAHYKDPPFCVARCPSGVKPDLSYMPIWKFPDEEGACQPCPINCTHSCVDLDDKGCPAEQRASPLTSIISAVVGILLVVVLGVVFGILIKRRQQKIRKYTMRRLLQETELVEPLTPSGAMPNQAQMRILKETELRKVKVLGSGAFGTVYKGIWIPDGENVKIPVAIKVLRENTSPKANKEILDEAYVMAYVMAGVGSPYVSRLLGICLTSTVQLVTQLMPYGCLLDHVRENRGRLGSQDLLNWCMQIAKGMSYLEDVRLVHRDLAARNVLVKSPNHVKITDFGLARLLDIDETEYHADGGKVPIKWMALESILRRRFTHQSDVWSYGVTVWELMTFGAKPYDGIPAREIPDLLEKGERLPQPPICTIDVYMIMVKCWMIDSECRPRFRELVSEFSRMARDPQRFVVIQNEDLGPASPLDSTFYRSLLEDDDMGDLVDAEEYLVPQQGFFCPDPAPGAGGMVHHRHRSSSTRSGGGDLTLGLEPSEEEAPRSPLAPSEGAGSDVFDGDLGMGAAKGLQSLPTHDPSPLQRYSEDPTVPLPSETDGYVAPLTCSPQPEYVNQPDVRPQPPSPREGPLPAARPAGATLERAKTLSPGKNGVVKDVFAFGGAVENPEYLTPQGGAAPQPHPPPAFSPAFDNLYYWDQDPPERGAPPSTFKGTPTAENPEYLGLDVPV
Chain of ErbB2 with Exon 20 YVMA insertion (HER2-YVMA) (P04626 other isoform, or with tags, fused parts or gaps ins YVMA behind 775): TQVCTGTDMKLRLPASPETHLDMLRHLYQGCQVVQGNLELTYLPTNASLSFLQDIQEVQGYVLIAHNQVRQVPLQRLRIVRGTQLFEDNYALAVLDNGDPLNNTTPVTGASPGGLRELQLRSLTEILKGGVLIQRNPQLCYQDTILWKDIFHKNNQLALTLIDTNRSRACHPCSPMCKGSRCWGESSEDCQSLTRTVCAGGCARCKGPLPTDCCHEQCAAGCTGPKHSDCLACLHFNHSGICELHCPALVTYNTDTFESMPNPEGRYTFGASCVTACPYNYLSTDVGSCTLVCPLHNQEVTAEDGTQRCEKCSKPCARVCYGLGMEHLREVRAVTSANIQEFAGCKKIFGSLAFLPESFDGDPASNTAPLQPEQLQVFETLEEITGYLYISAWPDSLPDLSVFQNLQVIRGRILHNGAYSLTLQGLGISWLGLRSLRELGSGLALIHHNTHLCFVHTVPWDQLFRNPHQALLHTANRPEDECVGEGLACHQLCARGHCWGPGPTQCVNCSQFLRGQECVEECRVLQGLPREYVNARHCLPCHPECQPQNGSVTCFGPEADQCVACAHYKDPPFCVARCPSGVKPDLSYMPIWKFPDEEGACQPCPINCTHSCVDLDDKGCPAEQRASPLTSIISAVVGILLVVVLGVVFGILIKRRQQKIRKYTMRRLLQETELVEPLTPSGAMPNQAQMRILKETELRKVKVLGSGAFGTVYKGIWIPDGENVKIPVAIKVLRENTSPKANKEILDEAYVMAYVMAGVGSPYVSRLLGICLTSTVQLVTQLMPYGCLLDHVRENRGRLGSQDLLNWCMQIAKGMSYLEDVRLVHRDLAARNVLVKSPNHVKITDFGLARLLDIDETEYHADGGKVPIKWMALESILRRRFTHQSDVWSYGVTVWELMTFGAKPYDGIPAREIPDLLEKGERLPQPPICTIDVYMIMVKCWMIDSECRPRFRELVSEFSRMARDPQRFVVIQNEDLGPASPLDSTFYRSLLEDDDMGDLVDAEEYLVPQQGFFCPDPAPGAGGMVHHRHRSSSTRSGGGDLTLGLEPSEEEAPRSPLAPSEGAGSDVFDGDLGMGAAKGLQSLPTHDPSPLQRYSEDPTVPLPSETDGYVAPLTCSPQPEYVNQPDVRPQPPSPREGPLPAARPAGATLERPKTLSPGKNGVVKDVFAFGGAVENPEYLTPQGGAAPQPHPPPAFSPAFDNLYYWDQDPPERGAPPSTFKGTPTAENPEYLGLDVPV
Chain of ErbB2 WT (P04626 23-1255): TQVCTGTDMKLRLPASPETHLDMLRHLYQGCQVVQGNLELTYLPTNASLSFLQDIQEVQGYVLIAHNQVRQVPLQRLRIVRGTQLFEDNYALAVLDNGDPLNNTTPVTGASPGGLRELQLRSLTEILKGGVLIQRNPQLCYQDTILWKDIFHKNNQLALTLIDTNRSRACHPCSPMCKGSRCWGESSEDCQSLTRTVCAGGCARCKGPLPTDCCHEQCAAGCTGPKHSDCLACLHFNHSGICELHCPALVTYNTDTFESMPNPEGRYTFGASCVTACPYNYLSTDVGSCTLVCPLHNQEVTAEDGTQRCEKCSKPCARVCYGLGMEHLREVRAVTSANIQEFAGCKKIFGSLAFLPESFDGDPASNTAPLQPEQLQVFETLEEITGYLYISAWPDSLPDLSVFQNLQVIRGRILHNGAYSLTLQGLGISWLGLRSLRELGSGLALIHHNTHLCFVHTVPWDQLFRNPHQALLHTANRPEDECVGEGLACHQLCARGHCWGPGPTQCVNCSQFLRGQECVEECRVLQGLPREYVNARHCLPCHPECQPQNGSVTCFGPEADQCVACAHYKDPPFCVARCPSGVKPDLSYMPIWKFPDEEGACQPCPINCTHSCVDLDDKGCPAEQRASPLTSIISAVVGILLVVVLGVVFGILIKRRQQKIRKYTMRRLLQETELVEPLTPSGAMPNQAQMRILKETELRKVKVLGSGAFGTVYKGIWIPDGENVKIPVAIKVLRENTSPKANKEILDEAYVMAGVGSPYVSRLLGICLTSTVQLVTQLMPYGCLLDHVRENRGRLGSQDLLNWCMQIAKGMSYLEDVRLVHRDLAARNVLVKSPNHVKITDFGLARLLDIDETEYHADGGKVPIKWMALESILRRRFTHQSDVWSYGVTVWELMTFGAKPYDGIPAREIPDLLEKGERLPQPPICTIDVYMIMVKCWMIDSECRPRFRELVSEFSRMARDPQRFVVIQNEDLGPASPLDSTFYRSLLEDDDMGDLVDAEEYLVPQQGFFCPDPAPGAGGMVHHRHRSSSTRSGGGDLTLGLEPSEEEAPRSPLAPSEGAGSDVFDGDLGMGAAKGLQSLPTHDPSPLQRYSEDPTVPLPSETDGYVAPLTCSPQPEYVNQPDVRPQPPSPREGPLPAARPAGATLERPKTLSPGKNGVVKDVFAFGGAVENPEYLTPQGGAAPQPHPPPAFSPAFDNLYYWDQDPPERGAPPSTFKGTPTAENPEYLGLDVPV
Chain of EGFR wild type (EGFR WT) (P00533 25-1210): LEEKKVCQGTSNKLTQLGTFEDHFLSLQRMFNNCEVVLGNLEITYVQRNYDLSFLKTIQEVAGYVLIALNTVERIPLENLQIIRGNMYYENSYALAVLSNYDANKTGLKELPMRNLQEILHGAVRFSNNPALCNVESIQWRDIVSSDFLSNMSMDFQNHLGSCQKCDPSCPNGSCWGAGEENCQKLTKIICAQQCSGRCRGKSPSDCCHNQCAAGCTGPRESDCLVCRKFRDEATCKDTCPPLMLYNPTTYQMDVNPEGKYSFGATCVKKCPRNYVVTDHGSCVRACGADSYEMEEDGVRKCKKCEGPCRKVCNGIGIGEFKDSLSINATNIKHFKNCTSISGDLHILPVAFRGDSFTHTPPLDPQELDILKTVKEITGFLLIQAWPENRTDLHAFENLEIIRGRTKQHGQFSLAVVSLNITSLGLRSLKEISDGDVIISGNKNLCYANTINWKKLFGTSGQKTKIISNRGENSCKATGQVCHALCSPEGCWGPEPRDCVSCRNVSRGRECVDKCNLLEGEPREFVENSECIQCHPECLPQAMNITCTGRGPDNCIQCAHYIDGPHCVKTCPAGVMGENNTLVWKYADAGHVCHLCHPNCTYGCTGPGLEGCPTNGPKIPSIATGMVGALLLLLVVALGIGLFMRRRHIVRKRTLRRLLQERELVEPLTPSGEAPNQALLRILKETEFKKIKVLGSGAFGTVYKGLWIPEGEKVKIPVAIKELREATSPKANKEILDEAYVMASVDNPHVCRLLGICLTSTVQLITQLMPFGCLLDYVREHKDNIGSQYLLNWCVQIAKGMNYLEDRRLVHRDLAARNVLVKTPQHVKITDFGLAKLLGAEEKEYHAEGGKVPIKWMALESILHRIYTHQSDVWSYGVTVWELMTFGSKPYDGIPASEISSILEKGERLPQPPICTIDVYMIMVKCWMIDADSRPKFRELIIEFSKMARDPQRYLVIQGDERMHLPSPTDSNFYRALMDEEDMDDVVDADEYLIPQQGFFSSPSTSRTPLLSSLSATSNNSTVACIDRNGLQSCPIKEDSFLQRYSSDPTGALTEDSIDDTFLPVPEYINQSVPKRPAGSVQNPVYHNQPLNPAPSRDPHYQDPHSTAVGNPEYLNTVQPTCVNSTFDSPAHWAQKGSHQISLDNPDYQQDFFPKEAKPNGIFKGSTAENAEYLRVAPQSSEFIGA

SMILES	IC50 ([1]; read-out: Assay 1 IC50)	IC50 [2]	IC50 [3]	IC50 [4]	IC50 [5]	efflux ratio at 2 h, 1 μM [6]	IC50 ([1]; Assay 1 IC50 (nM))
Cc1cc(Nc2ncnc3cnc(N(C)CC4(O)CCC4)nc23)ccc1Oc1ccc2c(c1)ncn2C [Example 164, 1-((methyl(8-((3-methyl-4-((1-methyl-1H-benzo[d]imidazol-5-yl)oxy)phenyl)amino)pyrimido[5,4-d]pyrimidin-2-yl)amino)methyl)cyclobutan-1-ol]	28 nM	52.3 nM	≥ 10000 nM	9 nM	≥ 5000 nM	2.2	
Cc1cc(Nc2ncnc3cnc(N(C)CCC(C)(C)O)nc23)ccc1Oc1ccc2c(c1)ncn2C [Example 102, 2-methyl-4-(methyl(8-((3-methyl-4-((1-methyl-1H-benzo[d]imidazol-5-yl)oxy)phenyl)amino)pyrimido[5,4-d]pyrimidin-2-yl)amino)butan-2-ol]	23.8 nM	20.7 nM	2730 nM	9.4 nM	≥ 5000 nM		
Cc1c(Oc2ccc3c(c2)ncn3C)ccc(Nc2ncnc3cnc(N4CC[C@H](O)C4)nc23)c1F [Example 458]	13.3 nM	28 nM	1630 nM	75.2 nM	≥ 5000 nM		
CON(C)c1ncc2ncnc(Nc3ccc(Oc4ccc5c(c4)ncn5C)c(C)c3)c2n1 [Example 22, 6-(methoxy(methyl)amino)-N-(3-methyl-4-((1-methyl-1H-benzo[d]imidazol-5-yl)oxy)phenyl)pyrimido[5,4-d]pyrimidin-4-amine]	25.5 nM	52.4 nM	8700 nM	13 nM	≥ 5000 nM		
Cc1cc(Nc2ncnc3cnc(N(C)[C@@H]4CCCOC4)nc23)ccc1Oc1ccn2ncnc2c1 [Example 415]	16.9 nM	16.8 nM	970 nM	94.6 nM	≥ 5000 nM		
Cc1cc(Nc2ncnc3cnc(N4CCC[C@@]5(CCO5)C4)nc23)ccc1Oc1ccc2c(c1)ncn2C [Example 386]	82.1 nM	59.4 nM	6990 nM	16.7 nM	≥ 5000 nM		
Cc1cc(Nc2ncnc3cnc(N4CCC(C)(C#N)C4)nc23)ccc1Oc1ccc2c(c1)ncn2C (centres unmarked) [Example 475]	22.4 nM	88.6 nM	≥ 10000 nM	82.6 nM	≥ 5000 nM		
Cc1c(Oc2ccn3ncnc3c2)ccc(Nc2ncnc3cnc(N(C)CC(F)F)nc23)c1F [Example 317]	18.1 nM	101 nM	≥ 10000 nM	402 nM	≥ 5000 nM		
Cc1cc(Nc2ncnc3cnc(N4CC[C@H](C(F)F)C4)nc23)ccc1Oc1ccn2ncnc2c1 [Example 359]	11.7 nM	32.7 nM	≥ 10000 nM	278 nM	≥ 5000 nM		
CN1CCN(c2ncc3ncnc(Nc4ccc(Oc5ccc6c(c5)ncn6C)c(Cl)c4)c3n2)CC1 [Example 143, N-(3-chloro-4-((1-methyl-1H-benzo[d]imidazol-5-yl)oxy)phenyl)-6-(4-methylpiperazin-1-yl)pyrimido[5,4-d]pyrimidin-4-amine 2,2,2-trifluoroacetate]		50.7 nM	7410 nM	28.2 nM	≥ 5000 nM		35.1 nM
N#C[C@H]1CCN(c2ncc3ncnc(Nc4ccc(Oc5ccn6ncnc6c5)c(Cl)c4)c3n2)C1 [Example 367]	16.5 nM	64.7 nM	≥ 10000 nM	264 nM	≥ 5000 nM		
Cc1cc(Nc2ncnc3cnc(N4CCN[C@H](C)C4)nc23)ccc1Oc1ccc2c(c1)ncn2C [Example 277]	16 nM	42.8 nM	≥ 10000 nM	28.3 nM	≥ 5000 nM		
Cc1cc(Nc2ncnc3cnc(N4C[C@H]5C[C@@H]4CO5)nc23)ccc1Oc1ccn2ncnc2c1 [Example 121, N-(4-([1,2,4]triazolo[1,5-a]pyridin-7-yloxy)-3-methylphenyl)-6-((1R,4R)-2-oxa-5-azabicyclo[2.2.1]heptan-5-yl)pyrimido[5,4-d]pyrimidin-4-amine]	32.4 nM	121 nM	≥ 10000 nM	667 nM	≥ 5000 nM		
Cc1cc(Nc2ncnc3cnc(N4CC[C@@H]4C(C)(C)O)nc23)ccc1Oc1ccn2ncnc2c1 [Example 423]	110 nM	337 nM	≥ 10000 nM	1950 nM	≥ 5000 nM		
Cc1cc(Nc2ncnc3cnc(N4CC5CCOC5C4)nc23)ccc1Oc1ccc2c(c1)ncn2C (centres unmarked) [Example 462]	20.3 nM	41.5 nM	≥ 10000 nM	18.6 nM	≥ 5000 nM		
COC[C@@H](C)Nc1ncc2ncnc(Nc3ccc(Oc4ccc5c(c4)ncn5C)c(C)c3)c2n1 [Example 61, (R)—N2-(1-methoxypropan-2-yl)-N8-(3-methyl-4-((1-methyl-1H-benzo[d]imidazol-5-yl)oxy)phenyl)pyrimido[5,4-d]pyrimidine-2,8-diamine]	36.9 nM	107 nM	≥ 10000 nM	49.5 nM	≥ 5000 nM		
Cc1c(Oc2ccn3ncnc3c2)ccc(Nc2ncnc3cnc(N(C)CC(C)(C)O)nc23)c1F [Example 306]	16.7 nM	35.1 nM	6840 nM	1000 nM	≥ 5000 nM		
Cc1cc(Nc2ncnc3cnc(N4CC5CC(C4)C5O)nc23)ccc1Oc1ccc2c(c1)ncn2C (centres unmarked) [Example 464]		60.2 nM	≥ 10000 nM	83.1 nM	≥ 5000 nM		9.4 nM
CC(=O)O[C@H]1CN(c2ncc3ncnc(Nc4ccc(Oc5ccc6c(c5)ncn6C)c(C)c4)c3n2)C[C@H]1F [Example 90, (3S,4R)-4-fluoro-1-(8-((3-methyl-4-((1-methyl-1H-benzo[d]imidazol-5-yl)oxy)phenyl)amino)pyrimido[5,4-d]pyrimidin-2-yl) pyrrolidin-3-yl acetate]	41 nM	93.1 nM	≥ 10000 nM	29 nM	≥ 5000 nM		
Cc1cc(Nc2ncnc3cnc(O[C@H]4CCN(C)C[C@@H]4F)nc23)ccc1Oc1ccc2c(c1)ncn2C [Example 288]	79.8 nM	262 nM	≥ 10000 nM	94 nM	≥ 5000 nM		
CON1CCN(c2ncc3ncnc(Nc4ccc(Oc5ccn6ncnc6c5)c(Cl)c4)c3n2)CC1 [Example 436]	15.4 nM	25 nM	≥ 10000 nM	61.1 nM	≥ 5000 nM		
Cc1cc(Nc2ncnc3cnc(NC(C)C)nc23)ccc1Oc1ccc2c(c1)ncn2C [Example 261]	48.8 nM	86.1 nM	≥ 10000 nM	21.9 nM	≥ 5000 nM		
Cc1cc(Nc2ncnc3cnc(N4CC[C@@H](CC#N)C4)nc23)ccc1Oc1ccc2c(c1)ncn2C [Example 201, (S)-2-(1-(8-((3-methyl-4-((1-methyl-1H-benzo[d]imidazol-5-yl)oxy)phenyl)amino)pyrimido[5,4-d]pyrimidin-2-yl)pyrrolidin-3-yl)acetonitrile]	27.7 nM	88.8 nM	≥ 10000 nM	9.9 nM	≥ 5000 nM		
